# Patent US5527810A, “Decahydroisoquinoline compounds as excitatory amino acid receptor antagonists” (Eli Lilly and Company, priority 1994, dated 1996)
# How the values were obtained:
# formalin model = conditions: cited from earlier work
# NMDA receptor [1] = experiment: NMDA receptor radioligand binding, displacement of [3H]CGS19755 (rat forebrain synaptosomal membranes)
# Experimental: (§1) The formula I compounds were tested for their ability to inhibit NMDA, AMPA, and kainic acid receptor binding to rat membranes in a radioligand binding assay using [^3 H]CGS19755, [^3 H]AMPA, and [^3 H]KA. For all radioligand binding assays, male Sprague-Dawley rats were used. Displacement of the specific binding [^3 H]CGS19755 (10 nM) to Triton-X-treated synaptosomal membranes of rat forebrain was used to determine NMDA receptor affinity. Non-specific binding was determined using 10 μM L-glutamate. Samples were incubated in an ice-bath for 30 minutes, and bound ligand was separated from the free ligand by rapid filtration through WHATMAN GF/B glass fiber filters. Murphy et al, British J. Pharmacol., 95, 932-938 (1988). Kainate binding was performed using washed synaptosomal membranes from the rat forebrain as described by Simon et al. Simon et al, J. Neurochem., 26, 141-147 (1976). Tritiated kainate (5 nM) was added to 50 mM Tris-HCl buffer (pH 7.4 at 4° C.) containing 200-300 μg/ml of tissue protein. Samples were incubated for 30 minutes in an ice-bath, then rapidly filtered using a Brandel cell harvester and WHATS GF/C filters. Filters were washed twice with 3 ml of cold buffer. Non-specific binding was determined using 100 μM non-labeled kainate. The binding of [^3 H]AMPA (5 nM) was conducted with crude membranes of rat forebrain in the presence of 100 mM KSCN as described by Nielson et al. Nielson et al, Eur. J. Med. Chem. Chem. Ther., 21, 433-437 (1986). Non-specific binding was determined with 10 μM non-labeled AHPA. The concentration of the formula I compound that inhibited 50% binding (IC50, mean ± standard error, n=3) as calculated by linear regression of displacement data transformed to the Hill equation as described by Bennett. Bennett, Neurotransmitter Receptor Binding, 57-90 (1978).
# AMPA receptor [2] = experiment: AMPA receptor radioligand binding, displacement of [3H]AMPA (crude membranes of rat forebrain)
# Experimental: as §1
# kainic acid receptor = experiment: Kainate receptor radioligand binding, displacement of [3H]KA (washed synaptosomal membranes from rat forebrain); conditions: [3H]kainate 5 nM, pH 7.4; mean ± standard error (n=3); 21.0 of compound 2 is a single experiment (footnote d)
# Experimental: as §1, with “The binding of [^3 H]AMPA (5 nM) was conducted with crude membranes of rat forebrain in the presence of 100 mM KSCN as described by Nielson et al. Nielson et al, Eur. J. Med. Chem. Chem. Ther., 21, 433-437 (1986).” left out, “The concentration of the formula I compound that inhibited 50% binding (IC50, mean ± standard error, n=3) as calculated by linear regression of displacement data transformed to the Hill equation as described by Bennett. Bennett, Neurotransmitter Receptor Binding, 57-90 (1978).” left out
# NMDA receptor [3] = experiment: Antagonism of cortical wedge depolarization induced by NMDA; type: cell-based, rat; conditions: for IC50: NMDA 40 μM, mean ± standard error (n=3)
# Experimental: (§2) The depolarization of rat cortical wedges was used to test the selectivity and potency of the formula I compounds as AMPA and NTMDA antagonists using a technique similar to that described by Harrison and Simmonds. Harrison and Simmonds, Bri. J. Pharmacol., 84, 381-391 (1984). Generally, 4-ml aliquots of NMDA (40 μM), AMPA (40 μM), and kainate (10 μM) were superfused (2 ml/min.) on the grey matter at intervals of 15-20 minutes until stable responses were attained. The tissue was then exposed for 15 minutes to various concentrations of the formula I compounds before retesting the agonists. The IC50 values were calculated from linear regression of log dose-response curves, each point the mean of at least three observations on separate slices from more than one animal.
# AMPA receptor [4] = experiment: Antagonism of cortical wedge depolarization induced by AMPA; type: cell-based, rat; conditions: for IC50: AMPA 40 μM, mean ± standard error (n=3)
# Experimental: as §2
# kainate (KA) receptor = experiment: Antagonism of cortical wedge depolarization induced by kainate; type: cell-based, rat; conditions: kainate 10 μM; mean ± standard error (n=3); 15 min
# Experimental: as §2
# CNS ischemia = conditions: cited from earlier work
# Huntington's Disease = conditions: in vivo; cited from earlier work
# sound induced seizures = conditions: DBA/2 mice; cited from earlier work
# focal cerebral ischemia [5] = conditions: cited from earlier work
# [6] = system: warm water tail withdrawal; conditions: rhesus monkeys; cited from earlier work
# focal cerebral ischemia [7] = conditions: cited from earlier work; remark: listed apart in the source
# global ischemia = conditions: in vivo; cited from earlier work
# [8] = system: global and focal ischemic damage; conditions: in vivo; cited from earlier work
# [9] = [3H]CGS19755 10 nM, mean ± standard error (n=3), 0.96 of compound 2 is a single experiment (footnote d), read-out: IC50 NMDA (receptor binding)
# [10] = [3H]AMPA 5 nM, 100 mM KSCN, mean ± standard error (n=3), read-out: IC50 AMPA (receptor binding)
smiles,measurement,setting,value
NC(CCCP(=O)(O)O)C(=O)O (racemic) [DL-AP5],analgesic in mouse formalin model,formalin model,analgesic
"O=C(O)[C@@H]1C[C@H]2C[C@@H](c3nn[nH]n3)CC[C@H]2CN1 (relative stereo) [Compound 1, (3SR, 4aRS, 6SR, 8aRS)-6-(1(2)H-Tetrazole-5-yl)decahydroisoquinoline-3-carboxylic Acid]",IC50,NMDA receptor [1]; [9],1.56 ± 0.23 µM
same,IC50,AMPA receptor [2]; [10],12.8 ± 0.27 µM
same,IC50 KA (receptor binding),kainic acid receptor,31.84 ± 2.31 µM
same,IC50,NMDA receptor [3],7.5 ± 0.7 µM
same,IC50,AMPA receptor [4],40.9 ± 5.2 µM
same,IC50 KA (cortical wedge depolarization),kainate (KA) receptor,> 100 µM
O=C(O)[C@H]1C[C@@H](Cc2nn[nH]n2)CCN1 (relative stereo) [LY233053],protection in CNS ischemia model in rabbits,CNS ischemia,provided protection
O=C(O)[C@@H]1C[C@H]2C[C@@H](CP(=O)(O)O)CC[C@H]2CN1 (relative stereo) [LY274614],neuroprotection in animal model of Huntington's Disease,Huntington's Disease,neuroprotective
C/C(=C\C(N)C(=O)O)CP(=O)(O)O (stereo not shown) [CGP 37849],anticonvulsant against sound induced seizures,sound induced seizures,anticonvulsant
O=C(O)[C@@H]1C[C@H](CP(=O)(O)O)CCN1 [CGS 19755],protection in focal cerebral ischemia model in rats,focal cerebral ischemia [5],provided protection
same,analgesic in warm water tail withdrawal procedure,[6],analgesic
"O=C(O)[C@@H]1C[C@H]2C[C@@H](c3nn[nH]n3)CC[C@H]2CN1 [Compound 2, (3S, 4aR, 6S, 8aR)-6-(1(2)H-Tetrazole-5-yl)decahydroisoquinoline-3-carboxylic Acid]",IC50,NMDA receptor [1]; [9],0.96 µM
same,IC50,"NMDA receptor [1]; text summary of Table I, read-out: IC50 for displacement of [3H]CGS19755, summary statement",< 10 µM
same,IC50,AMPA receptor [2]; [10],5.72 ± 0.89 µM
same,IC50,"AMPA receptor [2]; text summary of Table I, read-out: IC50 for displacement of 3H-AMPA, summary statement",< 10 µM
same,IC50 KA (receptor binding),kainic acid receptor,21.0 µM
same,IC50,NMDA receptor [3],4.1 ± 0.3 µM
same,NMDA receptor antagonism,"NMDA receptor [3]; statement in words, Table II",AMPA and NMDA receptor antagonists
same,IC50,AMPA receptor [4],13.2 ± 2.4 µM
same,AMPA receptor antagonism,"AMPA receptor [4]; statement in words, Table II",AMPA and NMDA receptor antagonists
same,IC50 KA (cortical wedge depolarization),kainate (KA) receptor,> 100 µM
O=C(O)[C@H]1CN(C/C=C/P(=O)(O)O)CCN1 [D-(-)CPP-ene],protection in focal cerebral ischemia model in cats,focal cerebral ischemia [7],provided protection
same,anticonvulsant against sound induced seizures,sound induced seizures,anticonvulsant
CC1=NN=C(c2ccc(N)cc2)c2cc3c(cc2C1)OCO3 [GKYI 52466],neuroprotection in rat global ischemia models,global ischemia,effective neuroprotective agent
"NS(=O)(=O)c1cccc2c1c([N+](=O)[O-])cc1nc(O)c(O)nc12 [NBQX, 2,3-dihydroxy-6-nitro-7-sulfamoylbenzo[f]quinoxaline]",prevention of global and focal ischemic damage,[8],effective in preventing global and focal ischemic damage
C[C@]12N[C@H](Cc3ccccc31)c1ccccc12 [dizocilpine],protection in focal cerebral ischemia model in cats,focal cerebral ischemia [7],provided protection
same,protection in focal cerebral ischemia model in rats,focal cerebral ischemia [5],provided protection
